Measurements reported in ChEMBL document CHEMBL1629464, “Aldehyde oxidase: an enzyme of emerging importance in drug discovery” (J Med Chem, 2010).

Experiments:
[1] = Oral bioavailability in dog; format: ADME, organism-based, Canis lupus familiaris; conditions: in vivo
Aldehyde oxidase 1 [2] = molecular target: T1, Aldehyde oxidase 1 (Macaca fascicularis, UniProt Q5FB27); experiment: Inhibition of monkey aldehyde oxidase
T1 sequence (Q5FB27 whole entry): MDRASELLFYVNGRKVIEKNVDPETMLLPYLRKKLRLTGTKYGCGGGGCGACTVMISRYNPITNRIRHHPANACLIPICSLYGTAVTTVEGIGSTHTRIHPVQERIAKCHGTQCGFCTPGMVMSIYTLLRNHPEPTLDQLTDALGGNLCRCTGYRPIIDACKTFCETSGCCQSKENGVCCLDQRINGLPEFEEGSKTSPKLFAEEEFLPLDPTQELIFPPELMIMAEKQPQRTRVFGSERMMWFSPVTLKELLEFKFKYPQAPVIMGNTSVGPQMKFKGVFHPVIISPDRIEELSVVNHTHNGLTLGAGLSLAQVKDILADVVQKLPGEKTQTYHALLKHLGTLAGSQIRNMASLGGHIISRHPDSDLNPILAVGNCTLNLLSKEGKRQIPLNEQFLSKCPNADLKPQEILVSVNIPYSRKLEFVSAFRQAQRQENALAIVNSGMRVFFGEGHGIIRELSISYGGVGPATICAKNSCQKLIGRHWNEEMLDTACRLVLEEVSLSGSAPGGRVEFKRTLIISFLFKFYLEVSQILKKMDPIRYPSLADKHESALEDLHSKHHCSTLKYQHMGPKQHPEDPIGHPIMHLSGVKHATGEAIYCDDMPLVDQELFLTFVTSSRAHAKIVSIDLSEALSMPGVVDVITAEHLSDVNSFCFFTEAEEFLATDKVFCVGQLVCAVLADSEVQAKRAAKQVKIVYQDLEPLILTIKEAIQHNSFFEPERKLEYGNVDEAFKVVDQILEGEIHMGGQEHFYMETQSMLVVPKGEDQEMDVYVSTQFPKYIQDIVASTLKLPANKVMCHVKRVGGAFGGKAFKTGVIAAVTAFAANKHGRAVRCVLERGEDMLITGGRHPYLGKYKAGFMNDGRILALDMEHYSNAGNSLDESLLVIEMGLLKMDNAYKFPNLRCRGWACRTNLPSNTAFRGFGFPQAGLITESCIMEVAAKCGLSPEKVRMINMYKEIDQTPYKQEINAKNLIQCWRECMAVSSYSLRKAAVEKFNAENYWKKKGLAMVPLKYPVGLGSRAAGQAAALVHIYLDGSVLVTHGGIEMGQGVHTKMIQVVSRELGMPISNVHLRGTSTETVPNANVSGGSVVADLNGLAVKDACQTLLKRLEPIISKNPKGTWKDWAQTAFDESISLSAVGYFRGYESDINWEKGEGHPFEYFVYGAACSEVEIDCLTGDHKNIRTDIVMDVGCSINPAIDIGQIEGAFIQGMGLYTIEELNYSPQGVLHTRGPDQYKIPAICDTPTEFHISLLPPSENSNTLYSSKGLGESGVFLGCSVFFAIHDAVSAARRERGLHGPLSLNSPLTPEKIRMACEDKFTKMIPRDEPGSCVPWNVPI

Aldehyde oxidase 1 [3] = molecular target: T2, Aldehyde oxidase 1 (Mus musculus, UniProt O54754); experiment: Inhibition of mouse aldehyde oxidase
T2 sequence (O54754 whole entry): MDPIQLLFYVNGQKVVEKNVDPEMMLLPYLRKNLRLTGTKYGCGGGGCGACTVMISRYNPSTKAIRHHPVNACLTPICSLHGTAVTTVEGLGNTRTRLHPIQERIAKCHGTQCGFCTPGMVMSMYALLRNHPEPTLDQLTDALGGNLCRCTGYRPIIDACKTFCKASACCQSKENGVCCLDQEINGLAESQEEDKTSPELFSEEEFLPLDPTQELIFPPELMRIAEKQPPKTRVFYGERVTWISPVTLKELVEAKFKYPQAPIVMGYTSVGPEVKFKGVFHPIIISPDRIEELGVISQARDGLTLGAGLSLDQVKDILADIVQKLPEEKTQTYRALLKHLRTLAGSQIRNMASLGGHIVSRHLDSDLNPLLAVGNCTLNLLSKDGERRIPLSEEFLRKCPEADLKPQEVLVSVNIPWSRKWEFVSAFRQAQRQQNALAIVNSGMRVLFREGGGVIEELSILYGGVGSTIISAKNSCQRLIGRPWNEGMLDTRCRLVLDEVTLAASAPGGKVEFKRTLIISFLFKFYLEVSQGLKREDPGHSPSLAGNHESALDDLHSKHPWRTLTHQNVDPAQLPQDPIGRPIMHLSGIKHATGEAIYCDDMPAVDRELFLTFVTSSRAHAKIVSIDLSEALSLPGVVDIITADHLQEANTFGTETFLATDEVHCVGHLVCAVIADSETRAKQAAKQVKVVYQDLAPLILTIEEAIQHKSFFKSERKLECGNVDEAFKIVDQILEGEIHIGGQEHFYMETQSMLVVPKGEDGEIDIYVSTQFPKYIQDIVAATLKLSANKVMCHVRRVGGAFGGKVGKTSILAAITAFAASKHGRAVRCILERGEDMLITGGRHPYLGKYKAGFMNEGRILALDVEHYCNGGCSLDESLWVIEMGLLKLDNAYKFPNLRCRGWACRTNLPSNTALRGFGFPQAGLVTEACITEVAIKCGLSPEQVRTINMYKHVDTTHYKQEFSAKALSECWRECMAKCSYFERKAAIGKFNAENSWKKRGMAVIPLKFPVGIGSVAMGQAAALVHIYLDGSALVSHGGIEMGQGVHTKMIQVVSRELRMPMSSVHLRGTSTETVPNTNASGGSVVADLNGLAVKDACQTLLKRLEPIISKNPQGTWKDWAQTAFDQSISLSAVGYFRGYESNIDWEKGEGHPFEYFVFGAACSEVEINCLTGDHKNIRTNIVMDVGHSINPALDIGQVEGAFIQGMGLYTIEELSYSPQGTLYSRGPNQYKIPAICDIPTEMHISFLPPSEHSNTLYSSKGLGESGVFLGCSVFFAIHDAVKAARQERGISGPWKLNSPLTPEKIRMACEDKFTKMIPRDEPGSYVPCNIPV

Aldehyde oxidase 1 [4] = molecular target: T3, Aldehyde oxidase 1 (Rattus norvegicus, UniProt Q9Z0U5); experiment: Inhibition of rat aldehyde oxidase
T3 sequence (Q9Z0U5 whole entry): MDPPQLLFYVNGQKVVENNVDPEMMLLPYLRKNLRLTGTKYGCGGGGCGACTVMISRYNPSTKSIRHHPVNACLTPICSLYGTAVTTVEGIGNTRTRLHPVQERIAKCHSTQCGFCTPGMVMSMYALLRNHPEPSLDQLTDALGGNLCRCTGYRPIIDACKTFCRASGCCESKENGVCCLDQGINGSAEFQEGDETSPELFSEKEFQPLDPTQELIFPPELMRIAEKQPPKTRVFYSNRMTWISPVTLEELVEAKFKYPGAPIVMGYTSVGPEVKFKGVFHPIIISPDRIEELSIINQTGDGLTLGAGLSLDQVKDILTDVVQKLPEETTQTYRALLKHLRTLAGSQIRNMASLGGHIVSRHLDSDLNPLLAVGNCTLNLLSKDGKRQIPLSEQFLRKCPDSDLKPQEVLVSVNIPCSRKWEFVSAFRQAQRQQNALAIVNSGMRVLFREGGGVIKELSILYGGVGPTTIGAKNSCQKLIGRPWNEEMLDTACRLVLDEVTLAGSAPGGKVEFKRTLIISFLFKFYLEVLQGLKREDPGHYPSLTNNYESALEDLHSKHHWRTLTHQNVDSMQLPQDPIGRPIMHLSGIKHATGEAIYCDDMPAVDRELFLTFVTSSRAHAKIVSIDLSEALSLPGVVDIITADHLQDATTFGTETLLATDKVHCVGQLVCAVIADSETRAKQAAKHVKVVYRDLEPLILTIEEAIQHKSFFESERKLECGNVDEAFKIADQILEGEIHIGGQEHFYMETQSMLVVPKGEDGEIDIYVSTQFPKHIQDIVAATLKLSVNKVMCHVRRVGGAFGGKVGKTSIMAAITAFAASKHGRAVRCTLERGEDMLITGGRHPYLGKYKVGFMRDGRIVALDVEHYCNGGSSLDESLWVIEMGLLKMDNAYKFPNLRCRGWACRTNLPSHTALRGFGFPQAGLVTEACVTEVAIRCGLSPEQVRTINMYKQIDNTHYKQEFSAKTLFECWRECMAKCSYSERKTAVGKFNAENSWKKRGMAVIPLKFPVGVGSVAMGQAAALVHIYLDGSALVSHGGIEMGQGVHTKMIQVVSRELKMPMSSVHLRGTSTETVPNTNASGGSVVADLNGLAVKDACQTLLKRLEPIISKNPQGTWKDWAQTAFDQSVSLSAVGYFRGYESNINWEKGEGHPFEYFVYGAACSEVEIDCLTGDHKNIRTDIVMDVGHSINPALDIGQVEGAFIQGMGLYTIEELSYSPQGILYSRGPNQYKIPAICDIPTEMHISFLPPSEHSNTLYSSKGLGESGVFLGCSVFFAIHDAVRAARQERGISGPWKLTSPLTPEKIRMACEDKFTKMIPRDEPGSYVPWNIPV

Homo sapiens = experiment: In-vivo intrinsic clearance in human; format: ADME, organism-based

With CCNC(=O)OC1CCN(c2n[nH]c(=O)c3cc(OC)c(OC)cc23)CC1 as the compound, how does the bioavailability [1] read?
Its bioavailability is 68%.

With O=C(c1ccc(OCCN2CCCCC2)cc1)c1c(-c2ccc(O)cc2)sc2cc(O)ccc12 [RALOXIFENE] as the compound, how does the IC50 (Aldehyde oxidase 1 [2]) read?
The IC50 was 500 nM.

What about the IC50 (Aldehyde oxidase 1 [3]) of the same compound?
Its IC50 is 500 nM.

What about the IC50 (Aldehyde oxidase 1 [4]) of the same compound?
The IC50 was 1100 nM.

For CCN(C(C)=O)c1cccc(-c2ccnc3c(C#N)cnn23)c1 [ZALEPLON], which CL (Homo sapiens) is on record?
Its CL is 90 mL/min/kg.
